Test results as given in patent US10633419B2, “Immunomodulators” (BRISTOL-MYERS SQUIBB COMPANY, priority 2014, dated 2020).
Positions of bridges follow the written chain, without caps; N, C: chain ends. Non-standard residues stand in square brackets, D forms with d. Residues, ends and D or L forms follow the SMILES beside them. *: point of attachment. X6 = O=C(O)CCCCCCCCCCCCCCCCC(=O)N[C@@H](CCC(=O)NCCCOCCOCCOCCCN*)C(=O)O; X13 = O=C(O)CCCCCCCCCCCCCCC(=O)N[C@@H](CCC(=O)NCCCOCCOCCOCCCN*)C(=O)O; Trp(1-CH2COOH) = N[C@@H](Cc1cn(CC(=O)O)c2ccccc12)C(=O)O; Phe(4-F) = N[C@@H](Cc1ccc(F)cc1)C(=O)O; d(cisHyp) = O=C(O)[C@H]1C[C@@H](O)CN1; Hyp = O=C(O)[C@@H]1C[C@@H](O)CN1; NMeNle = CCCC[C@H](NC)C(=O)O; Pip = O=C(O)[C@@H]1CCCCN1; NMeA = CN[C@@H](C)C(=O)O; Aun = NCCCCCCCCCCC(=O)O; Dab = NCC[C@H](N)C(=O)O; Dap = NC[C@H](N)C(=O)O

Biological target: T1, PD-L1 (Homo sapiens, UniProt Q9NZQ7)
T1 construct: hPDL1(19-239)-TVMV-His; made in house; host or cells: HEK293T
T1 sequence (Q9NZQ7 with tags, fused parts or gaps): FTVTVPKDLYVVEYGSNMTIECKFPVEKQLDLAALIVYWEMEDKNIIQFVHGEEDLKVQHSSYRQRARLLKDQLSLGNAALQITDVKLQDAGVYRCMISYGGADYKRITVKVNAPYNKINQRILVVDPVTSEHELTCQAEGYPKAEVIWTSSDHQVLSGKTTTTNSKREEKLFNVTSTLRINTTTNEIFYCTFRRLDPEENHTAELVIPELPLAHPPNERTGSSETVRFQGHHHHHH
Test: PD-1/PD-L1 Homogenous Time-Resolved Fluorescence (HTRF) binding assay (PD-1-Ig/PD-L1-His)
Conditions: inhibition of PD-1-Ig binding to PD-L1-TVMV-His; value given as range class; read-out: HTRF IC50
Procedure, shortened: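 HTRF competition in dPBS with 0.1% BSA and 0.05% Tween-20: 20 nM PD-1-Ig added after 15 min compound pre-incubation with 10 nM PD-L1-His, then another 15 min. Signal (665/620 nm) after 30 min with APC anti-His (20 nM) and Eu anti-Ig (1 nM).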

Compound | IC50
CCCC[C@H]1C(=O)N(C)[C@@H](CCCC)C(=O)N[C@@H](CCCNC(=N)N)C(=O)N[C@H](C(=O)NCC(=O)NCC(=O)N[C@@H](CC(=O)O)C(=O)NCCCCCCCCCCC(=O)O)CSCC(=O)N[C@@H](Cc2ccc(O)cc2)C(=O)N(C)[C@@H](C)C(=O)N[C@@H](CC(=O)O)C(=O)N2CCC[C@H]2C(=O)N[C@@H](Cc2cnc[nH]2)C(=O)N[C@@H](CC(C)C)C(=O)N2C[C@H](O)C[C@H]2C(=O)N[C@@H](Cc2c[nH]c3ccccc23)C(=O)N[C@@H](CO)C(=O)N[C@@H](Cc2c[nH]c3ccccc23)C(=O)N1C [Example 11069] ({CH2CO}-Y[NMeA]DPHL[Hyp]WSW[NMeNle][NMeNle]RCGGD[Aun]-OH; thioether N-14) | 10 to 99 nM
CCCC[C@H]1C(=O)N(C)[C@@H](CCCC)C(=O)N[C@@H](CC(C)C)C(=O)N[C@H](C(=O)NCC(=O)N[C@@H](CCC(=O)NCCCOCCOCCOCCCNC(=O)CC[C@H](NC(=O)CCCCCCCCCCCCCCC(=O)O)C(=O)O)C(=O)O)CSCC(=O)N[C@@H](Cc2ccc(O)cc2)C(=O)N(C)[C@@H](C)C(=O)N[C@@H](CC(N)=O)C(=O)N2CCC[C@H]2C(=O)N[C@@H](CN)C(=O)N[C@@H](CC(C)C)C(=O)N2C[C@H](O)C[C@@H]2C(=O)N[C@@H](Cc2c[nH]c3ccccc23)C(=O)N[C@@H](CCN)C(=O)N[C@@H](Cc2cn(CC(=O)O)c3ccccc23)C(=O)N1C [Example 11159] ({CH2CO}-Y[NMeA]NP[Dap]L[d(cisHyp)]W[Dab][Trp(1-CH2COOH)][NMeNle][NMeNle]LCGE(X13)-OH; thioether N-14) | 10 to 99 nM
CCCC[C@H]1C(=O)N(C)[C@@H](CCCC)C(=O)N[C@@H](CC(C)C)C(=O)N[C@H](C(=O)NCC(=O)N[C@@H](Cc2cn(CC[C@H](NC(=O)CCCCCCCCCCCCCCCCC(=O)O)C(=O)O)nn2)C(=O)O)CSCC(=O)N[C@@H](Cc2ccc(F)cc2)C(=O)N2CCCC[C@H]2C(=O)N[C@@H](CC(=O)O)C(=O)N2CCC[C@H]2C(=O)N[C@@H](CN)C(=O)N[C@@H](CC(C)C)C(=O)N2C[C@H](O)C[C@H]2C(=O)N[C@@H](Cc2c[nH]c3ccccc23)C(=O)N[C@@H](CCN)C(=O)N[C@@H](Cc2cn(CC(=O)O)c3ccccc23)C(=O)N1C [Example 14122] | 10 to 99 nM
CCCC[C@H]1C(=O)N(C)[C@@H](CCCC)C(=O)N[C@@H](CC(C)C)C(=O)N[C@H](C(=O)NCC(=O)N[C@@H](CC(=O)NCCCOCCOCCOCCCNC(=O)CC[C@H](NC(=O)CCCCCCCCCCCCCCCCC(=O)O)C(=O)O)C(=O)O)CSCC(=O)N[C@@H](Cc2ccc(O)cc2)C(=O)N2CCCC[C@H]2C(=O)N[C@@H](CC(N)=O)C(=O)N2CCC[C@H]2C(=O)N[C@@H](CN)C(=O)N[C@@H](CC(C)C)C(=O)N2C[C@H](O)C[C@H]2C(=O)N[C@@H](Cc2c[nH]c3ccccc23)C(=O)N[C@@H](CCN)C(=O)N[C@@H](Cc2cn(CC(=O)O)c3ccccc23)C(=O)N1C [Example 11262] ({CH2CO}-Y[Pip]NP[Dap]L[Hyp]W[Dab][Trp(1-CH2COOH)][NMeNle][NMeNle]LCGD(X6)-OH; thioether N-14) | 10 to 99 nM
CCCC[C@H]1C(=O)N(C)[C@@H](CCCC)C(=O)N[C@@H](CC(C)C)C(=O)N[C@H](C(=O)NCC(=O)N[C@@H](CCC(=O)NCCCOCCOCCOCCCNC(=O)CC[C@H](NC(=O)CCCCCCCCCCCCCCCCC(=O)O)C(=O)O)C(=O)O)CSCC(=O)N[C@@H](Cc2ccc(F)cc2)C(=O)N2CCCC[C@H]2C(=O)N[C@@H](CC(=O)O)C(=O)N2CCC[C@H]2C(=O)N[C@@H](CN)C(=O)N[C@@H](CCC(=O)O)C(=O)N2C[C@H](O)C[C@H]2C(=O)N[C@@H](Cc2c[nH]c3ccccc23)C(=O)N[C@@H](CCN)C(=O)N[C@@H](Cc2cn(CC(=O)O)c3ccccc23)C(=O)N1C [Example 11263] ({CH2CO}-[Phe(4-F)][Pip]DP[Dap]E[Hyp]W[Dab][Trp(1-CH2COOH)][NMeNle][NMeNle]LCGE(X6)-OH; thioether N-14) | 0.3 to 9.9 nM
